Reference: ChEMBL document CHEMBL4043067, “Synthesis and cytotoxic activities of goniothalamins and derivatives” (Bioorg Med Chem, 2017)

How the values were obtained:
MCF7 = assay: Antiproliferative activity against human MCF7 cells after 48 hrs by CellTiter-Glo luminescent cell viability assay; type: functional, cell-based; conditions: MCF7, 48 h
HBL-100 = assay: Antiproliferative activity against human HBL100 cells after 48 hrs by CellTiter-Glo luminescent cell viability assay; type: functional, cell-based; conditions: HBL-100, 48 h
A549 = assay: Antiproliferative activity against human A549 cells after 48 hrs by CellTiter-Glo luminescent cell viability assay; type: functional, cell-based; conditions: A549, 48 h
Saccharomyces cerevisiae [1] = assay: Cytotoxicity against Saccharomyces cerevisiae YRE1001 up to 100 ug/ml after 48 hrs by liquid drug assay
Saccharomyces cerevisiae [2] = assay: Inhibition of Pdr5 ATPase activity in Saccharomyces cerevisiae YRE1001 plasma membranes assessed as residual activity at 500 ug/ml after 20 mins in presence of ATP by colorimetric assay relative to control
Saccharomyces cerevisiae [3] = assay: Inhibition of Pdr5 in Saccharomyces cerevisiae YRE1001 plasma membranes assessed as reduction in rhodamine 6G transport by measuring relative fluorescence intensity at 5 ug/ml preincubated with enzyme followed by ATP addition measured for 20 mins by fluorescence assay relative to control; set-up: scale not given: the % may be the effect or the level left
Saccharomyces cerevisiae [4] = assay: Inhibition of Pdr5 ATPase activity in Saccharomyces cerevisiae YRE1001 plasma membranes assessed as residual activity at 5 ug/ml after 20 mins in presence of ATP by colorimetric assay relative to control
Saccharomyces cerevisiae [5] = assay: Inhibition of Pdr5 in Saccharomyces cerevisiae YRE1001 plasma membranes assessed as reduction in rhodamine 6G transport by measuring relative fluorescence intensity at 50 ug/ml preincubated with enzyme followed by ATP addition measured for 20 mins by fluorescence assay relative to control; set-up: scale not given: the % may be the effect or the level left
Saccharomyces cerevisiae [6] = assay: Inhibition of Pdr5 ATPase activity in Saccharomyces cerevisiae YRE1001 plasma membranes assessed as residual activity at 50 ug/ml after 20 mins in presence of ATP by colorimetric assay relative to control
Saccharomyces cerevisiae [7] = assay: Inhibition of Pdr5 in Saccharomyces cerevisiae YRE1001 plasma membranes assessed as reduction in rhodamine 6G transport by measuring relative fluorescence intensity at 500 ug/ml preincubated with enzyme followed by ATP addition measured for 20 mins by fluorescence assay relative to control; set-up: scale not given: the % may be the effect or the level left
Saccharomyces cerevisiae [8] = assay: Inhibition of Pdr5 in Saccharomyces cerevisiae YRE1001 plasma membranes assessed as reduction in rhodamine 6G transport by measuring relative fluorescence intensity at 13 ug/ml preincubated with enzyme followed by ATP addition measured for 20 mins by fluorescence assay relative to control; set-up: scale not given: the % may be the effect or the level left
Saccharomyces cerevisiae [9] = assay: Inhibition of Pdr5 ATPase activity in Saccharomyces cerevisiae YRE1001 plasma membranes assessed as residual activity at 125 ug/ml after 20 mins in presence of ATP by colorimetric assay relative to control
Saccharomyces cerevisiae [10] = assay: Inhibition of Pdr5 ATPase activity in Saccharomyces cerevisiae YRE1001 plasma membranes assessed as residual activity at 13 ug/ml after 20 mins in presence of ATP by colorimetric assay relative to control
Saccharomyces cerevisiae [11] = assay: Inhibition of Pdr5 in Saccharomyces cerevisiae YRE1001 plasma membranes assessed as reduction in rhodamine 6G transport by measuring relative fluorescence intensity at 125 ug/ml preincubated with enzyme followed by ATP addition measured for 20 mins by fluorescence assay relative to control; set-up: scale not given: the % may be the effect or the level left
Saccharomyces cerevisiae [12] = assay: Inhibition of Pdr5 ATPase activity in Saccharomyces cerevisiae YRE1001 plasma membranes assessed as residual activity at 250 ug/ml after 20 mins in presence of ATP by colorimetric assay relative to control

SMILES | IC50 (MCF7) [µM] | IC50 (HBL-100) [µM] | IC50 (A549) [µM] | Activity (Saccharomyces cerevisiae [1]) | Activity (Saccharomyces cerevisiae [2]) [%] | Activity (Saccharomyces cerevisiae [3]) [%] | Activity (Saccharomyces cerevisiae [4]) [%] | Activity (Saccharomyces cerevisiae [5]) [%] | Activity (Saccharomyces cerevisiae [6]) [%] | Activity (Saccharomyces cerevisiae [7]) [%] | Activity (Saccharomyces cerevisiae [8]) [%] | Activity (Saccharomyces cerevisiae [9]) [%] | Activity (Saccharomyces cerevisiae [10]) [%] | Activity (Saccharomyces cerevisiae [11]) [%] | Activity (Saccharomyces cerevisiae [12]) [%]
O=C1C=CC[C@@H](/C=C/c2ccc([N+](=O)[O-])cc2)O1 | > 100 | > 100 | > 100 | Toxic | – | – | – | – | – | – | – | – | – | – | –
O=C1C=CC[C@@H](/C=C/c2ccc(F)cc2)O1 | > 100 | > 100 | > 100 | Toxic | 26.3 | 99 | 71 | 75 | 40.7 | 10 | – | – | – | – | –
O=C1C=CCC(/C=C/c2ccccc2)O1 (racemic) | > 100 | 22.4 | 34.7 | Toxic | – | – | – | – | – | – | – | – | – | – | –
C[C@@H](Cc1ccccc1)[C@H]1CCCC(=O)O1 | > 100 | > 100 | > 100 | Toxic | – | – | – | – | – | – | – | – | – | – | –
O=C1C=CC[C@H](/C=C/C2CCCCC2)O1 | > 100 | 29 | 31 | Toxic | 56 | 91 | 98 | 18 | 79 | -8 | – | – | – | – | –
O=C1C=CC[C@@H](/C=C/c2ccccc2)O1 | > 100 | > 100 | 70.3 | Toxic | – | – | – | – | – | – | – | – | – | – | –
O=C1C=CC[C@H]([C@@H]2C[C@H]2c2ccccc2)O1 | > 100 | 43.4 | 62.8 | Toxic | – | – | – | – | – | – | – | – | – | – | –
O=C1CCC[C@H]([C@H]2C[C@@H]2c2ccccc2)O1 | > 100 | > 100 | > 100 | Toxic | – | – | – | – | – | – | – | – | – | – | –
COc1ccc(/C=C/[C@H]2CC=CC(=O)O2)cc1 | > 100 | > 100 | > 100 | Non-Toxic | 0 | 44 | 25.7 | 4 | 8.7 | 0 | – | – | – | – | –
O=C1C=CC[C@H](/C=C/c2ccccc2)O1 [GONIOTHALAMIN] | 55.5 | 20.9 | 5.7 | Toxic | 24.3 | 60 | 71.7 | 10 | 30 | -2 | – | – | – | – | –
O=C1CCC[C@@H]([C@H]2C[C@@H]2c2ccccc2)O1 | > 100 | > 100 | > 100 | Toxic | – | – | – | – | – | – | – | – | – | – | –
O=C1C=CC[C@@H]([C@H]2C[C@@H]2c2ccccc2)O1 | 68.3 | 34.9 | 15.2 | Toxic | – | – | – | – | – | – | – | – | – | – | –
O=C1C=CC[C@H](/C=C/c2ccc([N+](=O)[O-])cc2)O1 | 28.8 | 6.7 | 15.4 | Toxic | – | – | – | – | – | – | 54 | 51 | 79.3 | 21 | 50
O=C1C=CC[C@H]([C@H]2C[C@@H]2c2ccccc2)O1 | 48.2 | 14.4 | 11.6 | Toxic | – | – | – | – | – | – | – | – | – | – | –
COc1ccc(/C=C/[C@@H]2CC=CC(=O)O2)cc1 | 88.7 | > 100 | > 100 | Toxic | – | – | – | – | – | – | – | – | – | – | –
O=C1C=CC[C@@H](/C=C/C2CCCCC2)O1 | > 100 | 48.2 | 68.6 | Toxic | 53 | 86 | 88 | 37 | 74.7 | 0 | – | – | – | – | –
C[C@H](Cc1ccccc1)[C@H]1CCCC(=O)O1 | > 100 | > 100 | > 100 | Toxic | – | – | – | – | – | – | – | – | – | – | –
O=C1CCC[C@H]([C@@H]2C[C@H]2c2ccccc2)O1 | > 100 | > 100 | > 100 | Toxic | – | – | – | – | – | – | – | – | – | – | –
O=C1C=CC[C@H](/C=C/c2ccc(F)cc2)O1 | 76.2 | 14.1 | 10.2 | Toxic | – | – | – | – | – | – | – | – | – | – | –
